These results are taken from patent US6372774B1, “Derivatives of N-phenylpyrazoles” (Rhone-Poulenc Agriculture Ltd., priority 1985, dated 2002).

In data set [1] the test system is Plutella xylostella (Diamond-back Moth). Kind of data set: whole plant or invertebrate. It counts as in vivo. Conditions: foliar; for mortality at 500 ppm: read-out: mortality of larvae of Plutella xylostella. An excerpt: (§1) One or more dilutions of the compounds to be tested were made in 50% aqueous acetone.
(§2) a) Test species: Plutella xylostella (Diamond-back Moth) and Phaedon cochleariae (Mustard Beetle)
(§3) Turnip leaf discs were set in agar in petri-dishes and infected with 10 larvae (2nd instar Plutella or 3rd instar Phaedon). Four replicate dishes were assigned to each treatment and were sprayed under a Potter Tower with the appropriate test dilution. Four or five days after treatment the dishes were removed from the constant temperature (25° C.) room in which they had been held and the mean percentage mortalities of larvae were determined.

For data set [2], the system named is Megoura viciae (Vetch Aphid). Kind of data set: Test 3 b): spray of infested tic bean plants, Megoura viciae. To be noted: for Megoura score/12 50 ppm: Tables 1 and 3, sum of scores 0-3 of 4 replicates; for mortality at 50 ppm: Megoura viciae, read-out: mortality of Megoura viciae; for score from 4 replicates, Megoura viciae: Test 3 method (b), application of 50 ppm, score 0-3 per replicate, maximum 12. It counts as in vivo. As for the experimental part:
as §1
b) Megoura viciae (Vetch Aphid)
Potted tic bean plants previously infected with mixed stages of Megoura were sprayed to run-off using a laboratory turntable sprayer. Treated plants were held in a greenhouse for 2 days and were assessed for aphid mortality using a scoring system, judging the response in comparison with plants treated with 50% aqueous acetone alone, as controls.

In data set [3] the test system is Phaedon cochleariae (Mustard Beetle). Put plainly: Test 3 a): leaf disc spray test, Phaedon cochleariae larvae. Conditions: Phaedon cochleariae, foliar; for pest or weed control at 10 ppm: read-out: Phaedon % m 10 ppm; for mortality at 5 ppm: read-out: mortality of larvae of Phaedon cochleariae. The data set is classed as in vivo.
Excerpt: as §1, §2, §3

In the case of `N#Cc1nn(-c2c(Cl)cc(C(F)(F)F)cc2Cl)c(N)c1SC(F)(F)C(F)Cl` (stereo not drawn), the melting point was 116 to 118 °C.

Compound `N#Cc1nn(-c2c(Cl)cc(C(F)(F)F)cc2Cl)c(Br)c1[N+](=O)[O-]` returned a melting point of 147 to 150 °C.

Compound `N#Cc1nn(-c2c(Cl)cc(C(F)(F)F)cc2Cl)c(NC(=O)C(Cl)Cl)c1C#N` yielded a melting point of 186 to 187 °C.

`CCC(=O)Nc1c(C#N)c(C#N)nn1-c1c(Cl)cc(C(F)(F)F)cc1Cl`: the melting point lay within 188 to 189 °C.

Compound `N#Cc1nn(-c2c(Cl)c(F)c(C(F)(F)F)c(F)c2Cl)c(N)c1C#N` returned a melting point of 245 to 247 °C.

Turning to `CNc1c(C#N)c(C#N)nn1-c1c(Cl)cc(C(F)(F)F)cc1Cl`, the melting point is 165 to 166 °C.

`CCNc1c(C#N)c(C#N)nn1-c1c(Cl)cc(C(F)(F)F)cc1Cl` showed a melting point of 245 to 246 °C.

On to `CN(C)c1c([S+]([O-])C(F)(F)F)c(C#N)nn1-c1c(Cl)cc(C(F)(F)F)cc1Cl` (stereo not drawn), for which the melting point was 154 to 161 °C.

`N#Cc1nn(-c2c(Cl)cc(C(F)(F)F)cc2Cl)c(Br)c1[S+]([O-])C(F)(F)F` (stereo not drawn) registered a melting point of 147 to 148 °C.

In the case of `N#Cc1c(Cl)nn(-c2c(Cl)cc(C(F)(F)F)cc2Cl)c1N` [Compound 114, 5-Amino-3-chloro-4-cyano-1-(2,6-dichloro-4-trifluoromethylphenyl)pyrazole], in data set [1], the mortality at 500 ppm was found to be 100%. Also, in data set [2], the “Megoura score/12 50 ppm” value is 9. Further, the pest or weed control at 10 ppm in data set [3] was determined as 100%.

`N#Cc1c(Br)nn(-c2c(Cl)cc(C(F)(F)F)cc2Cl)c1N` [Compound 115, 5-Amino-3-bromo-4-cyano-1-(2,6-dichloro-4-trifluoromethylphenyl)pyrazole]: the mortality at 500 ppm in data set [1] is 100%. Further, the “Megoura score/12 50 ppm” value in data set [2] is 10. Also, in data set [3], the pest or weed control at 10 ppm worked out at 100%.

Turning to `COC=Nc1c(C#N)c(C)nn1-c1c(Cl)cc(C(F)(F)F)cc1Cl` [Compound 118, 4-Cyano-1-(2,6-dichloro-4-trifluoromethylphenyl)-3-methyl-5-methoxymethyleneaminopyrazole], the pest or weed control at 500 ppm in data set [1] (read-out: Plutella % m 500 ppm) came to 73%. For the same compound, the “Megoura score/12 50 ppm” value in data set [2] turned out to be 10. In data set [3], the pest or weed control at 10 ppm was 45%.

As for `CCCOC=Nc1c(C#N)c(C)nn1-c1c(Cl)cc(C(F)(F)F)cc1Cl` [Compound 119, 4-Cyano-1-(2,6-dichloro-4-trifluoromethylphenyl)-3-methyl-5-propoxymethyleneaminopyrazole], the melting point was in the range of 77 to 79 °C.

`N#Cc1nn(-c2c(F)c(F)c(C(F)(F)F)c(F)c2F)c(N)c1C#N` [Compound 126, 5-Amino-3,4-dicyano-1-(2,3,5,6-tetrafluoro-4-trifluoromethylphenyl)pyrazole] returned a melting point of 262 to 263 °C.

`N#Cc1c(C(F)(F)C(F)(F)F)nn(-c2c(Cl)cc(C(F)(F)F)cc2Cl)c1N` [Compound 127, 5-Amino-4-cyano-1-(2,6-dichloro-4-trifluoromethylphenyl)-3-pentafluoroethylpyrazole]: the mortality at 100 ppm in data set [1] (read-out: Plutella % mortality at 100 ppm) turned out to be 100%. Moreover, in data set [2], the “Megoura score/12 50 ppm” value was 10. The pest or weed control at 10 ppm in data set [3] was 100%.

With `N#Cc1c(C(F)F)nn(-c2c(Cl)cc(C(F)(F)F)cc2Cl)c1N` [Compound 129, 5-Amino-1-(2,6-dichloro-4-trifluoromethylphenyl)-4-cyano-3-difluoromethylpyrazole], the mortality at 500 ppm in data set [1] stood at 100%. Besides, in data set [2], the mortality at 50 ppm turned out to be 100% and the “score from 4 replicates, Megoura viciae” value stood at 12. In addition, the pest or weed control at 10 ppm in data set [3] was 100%.

For `CCOC=Nc1c(C#N)c(C(F)(F)F)nn1-c1c(Cl)cc(C(F)(F)F)cc1Cl` [Compound 135, 4-Cyano-1-(2,6-dichloro-4-trifluoromethylphenyl)-5-ethoxymethyleneamino-3-trifluoromethylpyrazole], the melting point was 160 to 162 °C.

With `N#Cc1c(CF)nn(-c2c(Cl)cc(C(F)(F)F)cc2Cl)c1N` [Compound 142, 5-Amino-4-cyano-1-(2,6-dichloro-4-trifluoromethylphenyl)-3-fluoromethylpyrazole], the melting point was 139 to 141 °C.

Regarding `N#Cc1c(C(F)(F)F)nn(-c2c(Cl)cc(OC(F)(F)F)cc2Cl)c1N` [Compound 144, 5-Amino-4-cyano-1-(2,6-dichloro-4-trifluoromethoxyphenyl)-3-trifluoromethylpyrazole], the mortality at 500 ppm in data set [1] is 100%. Further, in data set [2], the mortality at 50 ppm was 100% and the “score from 4 replicates, Megoura viciae” value came out at 12. In addition, in data set [3], the mortality at 5 ppm turned out to be 100%.

`N#Cc1cn(-c2c(Cl)cc(C(F)(F)F)cc2Cl)nc1C(F)(F)F` [Compound 150, 4-Cyano-1-(2,6-dichloro-4-trifluoromethylphenyl)-3-trifluoromethylpyrazole]: in data set [1], the mortality at 500 ppm was 100%. For the same compound, the “Megoura score/12 50 ppm” value in data set [2] is 10. Moreover, in data set [3], the pest or weed control at 10 ppm amounted to 100%.

As to `N#Cc1c(C(F)(F)F)nn(-c2c(Cl)cc(C(F)(F)F)cc2Cl)c1I` [Compound 151, 4-Cyano-1-(2,6-dichloro-4-trifluoromethylphenyl)-5-iodo-3-trifluoromethylpyrazole], the mortality at 500 ppm in data set [1] is 100%. For the same compound, in data set [2], the “Megoura score/12 50 ppm” value is recorded as 11. For the same compound, the pest or weed control at 10 ppm in data set [3] came to 100%.

Compound `N#Cc1nn(-c2c(F)c(F)c(C(F)(F)F)c(F)c2Cl)c(N)c1C#N` [Compound 157, 5-Amino-1-(2-chloro-3,5,6-trifluoro-4-trifluoromethylphenyl)-3,4-dicyanopyrazole] displayed a melting point of 242 to 243 °C.

For `N#Cc1nn(-c2c(Cl)cc(OC(F)(F)F)cc2Cl)c(N)c1C#N` [Compound 159, 5-Amino-1-(2,6-dichloro-4-trifluoromethoxyphenyl)-3,4-dicyanopyrazole], the melting point is 231 to 232 °C.

On to `CCOC(=O)c1c(C)nn(-c2c(Cl)cc(C(F)(F)F)cc2Cl)c1N` [Compound 162, 5-Amino-1-(2,6-dichloro-4-trifluoromethylphenyl)-3-methyl-4-ethoxycarbonylpyrazole], for which the melting point fell in the range of 115 to 118 °C.

The compound `Cc1nn(-c2c(Cl)cc(OC(F)(F)F)cc2Cl)c(N)c1S(C)(=O)=O` [Compound 163, 5-Amino-1-(2,6-dichloro-4-trifluoromethoxyphenyl)-4-methanesulphonyl-3-methylpyrazole] gave a melting point of 180 to 181 °C.

Turning to `N#Cc1c(C(F)(F)F)nn(-c2c(Cl)c(F)c(C(F)(F)F)c(F)c2Cl)c1N` [Compound 167, 5-Amino-4-cyano-1-(2,6-dichloro-3,5-difluoro-4-trifluoromethylphenyl)-3-trifluoromethylpyrazole], the melting point lay within 176 to 177 °C.

Regarding `C[Si](C)(C)c1c([N+](=O)[O-])c(C(F)(F)F)nn1-c1c(Cl)cc(C(F)(F)F)cc1Cl` [Compound 210, 1-(2,6-Dichloro-4-trifluoromethylphenyl)-4-nitro-3-trifluoromethyl-5-trimethylsilylpyrazole], the mortality at 500 ppm in data set [1] stood at 100%. Also, in data set [2], the mortality at 50 ppm is 100% and the “score from 4 replicates, Megoura viciae” value was determined as 12. For the same compound, the mortality at 5 ppm in data set [3] was determined as 100%.

Regarding `CS(=O)(=O)c1c(C#N)nn(-c2c(Cl)cc(C(F)(F)F)cc2Cl)c1N` [Compound 214, 5-Amino-3-cyano-1-(2,6-dichloro-4-trifluoromethylphenyl)-4-methanesulphonylpyrazole], the mortality at 500 ppm in data set [1] turned out to be 100%. In data set [2], the mortality at 50 ppm turned out to be 100% and the “score from 4 replicates, Megoura viciae” value is on record as 12. The mortality at 5 ppm in data set [3] is 100%.

Take `N#Cc1c(C(F)(F)F)nn(-c2c(Cl)cc([S+]([O-])C(F)(F)F)cc2Cl)c1N` (stereo not drawn) [Compound 219, 5-Amino-4-cyano-1-(2,6-dichloro-4-trifluoromethylsulphinylphenyl)-3-trifluoromethylpyrazole]: the mortality at 500 ppm in data set [1] was 100%. In addition, in data set [2], the mortality at 50 ppm was found to be 100% and the “score from 4 replicates, Megoura viciae” value is listed as 12. Besides, the mortality at 5 ppm in data set [3] was 100%.

For the compound `Cc1nn(-c2c(Cl)cc(C(F)(F)F)cc2Cl)c(N)c1S(=O)(=O)C(Cl)(Cl)Cl` [Compound 224, 5-Amino-1-(2,6-dichloro-4-trifluoromethylphenyl)-4-trichloromethanesulphonyl-3-methylpyrazole], in data set [2], the mortality at 50 ppm was 100% and the “score from 4 replicates, Megoura viciae” value came out at 12. In data set [3], the mortality at 5 ppm was 100%.

As for `CSc1c(C)nn(-c2c(Cl)cc(C(F)(F)F)cc2Cl)c1N` [Compound 226, 5-Amino-1-(2,6-dichloro-4-trifluoromethylphenyl)-3-methyl-4-methylthiopyrazole], in data set [2], the mortality at 50 ppm was 100% and the “score from 4 replicates, Megoura viciae” value was determined as 12. In addition, in data set [3], the mortality at 5 ppm is 100%.

As to `CCSc1c(C(F)(F)F)nn(-c2c(Cl)cc(C(F)(F)F)cc2Cl)c1N` [Compound 228, 5-Amino-1-(2,6-dichloro-4-trifluoromethylphenyl)-4-ethylthio-3-trifluoromethylpyrazole], in data set [1], the mortality at 500 ppm is 100%. In addition, in data set [2], the mortality at 50 ppm was determined as 100% and the “score from 4 replicates, Megoura viciae” value was 12. Also, the mortality at 5 ppm in data set [3] is 100%.
